In PubChem BioAssay AID248 (DTP/NCI, 2004):
“And” between values parts separate entries of the source, which are not always exact repeats. Equal entries are not always repeated. Toxic doses and inconclusive results are not listed. Rule as the data show it: active = T/C of 150% or more; inactive = T/C below 125%. Square brackets hold non-standard residues; d marks the D form. Peptide text beside a SMILES is read from it. * marks the point of attachment. ξ: configuration not given here. Tos = Cc1ccc(S(=O)(=O)*)cc1; ξS = NC(CO)C(=O)O

System: L1210 leukemia ip in BDF1 mice, survival T/C
Experiment: NCI In Vivo Anticancer Drug Screen. Data for tumor model L1210 Leukemia (intraperitoneal) in B6D2F1 (BDF1) mice
Details: endpoint: mean survival time, higher = longer survival
Procedure, shortened: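 In this screen, tumor-bearing mice given compound are compared to those given vehicle, and their survival values are reported as a treated-to-control quotient.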

[1] = dose: 100.0 mg/kg/injection, schedule: Q01DX001 (ip), vehicle: other
[2] = dose: 100.0 mg/kg/injection, schedule: Q01DX009 (ip), vehicle: saline with Tween-80
[3] = dose: 100.0 mg/kg/injection, schedule: Q04DX003 (ip), vehicle: other
[4] = dose: 200.0 mg/kg/injection, schedule: Q01DX001 (ip), vehicle: other
[5] = dose: 200.0 mg/kg/injection, schedule: Q01DX009 (ip), vehicle: saline with Tween-80
[6] = dose: 200.0 mg/kg/injection, schedule: Q04DX003 (ip), vehicle: other
[7] = dose: 400.0 mg/kg/injection, schedule: Q01DX009 (ip), vehicle: saline with Tween-80
[8] = dose: 400.0 mg/kg/injection, schedule: Q04DX003 (ip), vehicle: other
[9] = dose: 100.0 mg/kg/injection, schedule: Q04DX003 (ip), vehicle: Klucel (hydroxypropylcellulose) (HPC)
[10] = dose: 200.0 mg/kg/injection, schedule: Q04DX003 (ip), vehicle: Klucel (hydroxypropylcellulose) (HPC)
[11] = dose: 400.0 mg/kg/injection, schedule: Q04DX003 (ip), vehicle: Klucel (hydroxypropylcellulose) (HPC)
[12] = dose: 100.0 mg/kg/injection, schedule: Q01DX009 (ip), vehicle: saline
[13] = dose: 200.0 mg/kg/injection, schedule: Q01DX009 (ip), vehicle: saline
[14] = dose: 400.0 mg/kg/injection, schedule: Q01DX009 (ip), vehicle: saline
[15] = dose: 100.0 mg/kg/injection, schedule: Q01DX009 (ip), vehicle: Klucel (hydroxypropylcellulose) (HPC)
[16] = dose: 200.0 mg/kg/injection, schedule: Q01DX009 (ip), vehicle: Klucel (hydroxypropylcellulose) (HPC)
[17] = dose: 400.0 mg/kg/injection, schedule: Q01DX009 (ip), vehicle: Klucel (hydroxypropylcellulose) (HPC)
[18] = dose: 100.0 mg/kg/injection, schedule: Q01DX001 (ip), vehicle: Klucel (hydroxypropylcellulose) (HPC)
[19] = dose: 200.0 mg/kg/injection, schedule: Q01DX001 (ip), vehicle: Klucel (hydroxypropylcellulose) (HPC)
[20] = dose: 400.0 mg/kg/injection, schedule: Q01DX001 (ip), vehicle: Klucel (hydroxypropylcellulose) (HPC)
[21] = dose: 100.0 mg/kg/injection, schedule: Q04DX003 (ip), vehicle: saline with Tween-80
[22] = dose: 200.0 mg/kg/injection, schedule: Q04DX003 (ip), vehicle: saline with Tween-80
[23] = dose: 400.0 mg/kg/injection, schedule: Q04DX003 (ip), vehicle: saline with Tween-80
[24] = dose: 100.0 mg/kg/injection, schedule: Q04DX002 (ip), vehicle: Klucel (hydroxypropylcellulose) (HPC)
[25] = dose: 200.0 mg/kg/injection, schedule: Q04DX002 (ip), vehicle: Klucel (hydroxypropylcellulose) (HPC)
[26] = dose: 400.0 mg/kg/injection, schedule: Q04DX002 (ip), vehicle: Klucel (hydroxypropylcellulose) (HPC)

Measured: T/C

O=C(NC1CSSC1)C(Cc1ccccc1)N1C(=O)c2ccccc2C1=O (stereo not drawn)
inactive: dose: 6.25 mg/kg/injection, schedule: Q01DX009 (ip), vehicle: water 94 % of control | dose: 12.5 mg/kg/injection, schedule: Q01DX009 (ip), vehicle: water 96 % of control | dose: 25.0 mg/kg/injection, schedule: Q01DX009 (ip), vehicle: water 107 % of control | dose: 50.0 mg/kg/injection, schedule: Q01DX009 (ip), vehicle: water 96 % of control and 88 % of control | dose: 100.0 mg/kg/injection, schedule: Q01DX009 (ip), vehicle: water 87 % of control and 91 % of control | dose: 200.0 mg/kg/injection, schedule: Q01DX009 (ip), vehicle: water 98 % of control | dose: 400.0 mg/kg/injection, schedule: Q01DX009 (ip), vehicle: water 96 % of control

Cc1[nH]nc(C(F)(F)F)c1N=NN(C)C
inactive: dose: 175.0 mg/kg/injection, schedule: Q01DX009 (ip), vehicle: saline 90 % of control

CN(C)S(=O)(=O)c1ccc(NC(=O)CCl)cc1
inactive: [1] 98 % of control | [2] 106 % of control | [3] 97 % of control | [4] 110 % of control | [5] 102 % of control | [6] 103 % of control | dose: 400.0 mg/kg/injection, schedule: Q01DX001 (ip), vehicle: other 93 % of control | [7] 100 % of control | [8] 98 % of control

COC(=O)c1oc(C(=O)OC)c(OCc2ccccc2)c1OCc1ccccc1
inactive: [9] 103 % of control | [10] 106 % of control | [11] 95 % of control

Nc1nc(N)c(N=Nc2ccc(S(=O)(=O)Nc3ncccn3)cc2)cc1N=Nc1ccccc1
inactive: dose: 100.0 mg/kg/injection, schedule: Q01DX001 (ip), vehicle: carboxymethylcellulose (CMC) 101 % of control | dose: 200.0 mg/kg/injection, schedule: Q01DX001 (ip), vehicle: carboxymethylcellulose (CMC) 95 % of control | dose: 400.0 mg/kg/injection, schedule: Q01DX001 (ip), vehicle: carboxymethylcellulose (CMC) 103 % of control

Cc1ccc(S(=O)(=O)Nc2ccc([N+](=O)[O-])cc2OS(=O)(=O)c2ccc(C)cc2)cc1
inactive: [12] 97 % of control | [13] 101 % of control | [14] 95 % of control

C/C(C(=O)O)=C(\C)C(=O)O
inactive: [12] 104 % of control | dose: 100.0 mg/kg/injection, schedule: Q04DX002 (ip), vehicle: saline 108 % of control | [13] 97 % of control | dose: 200.0 mg/kg/injection, schedule: Q04DX002 (ip), vehicle: saline 104 % of control | [14] 108 % of control | dose: 400.0 mg/kg/injection, schedule: Q04DX002 (ip), vehicle: saline 101 % of control

Cc1ccc(S(=O)(=O)NC(CO)C(=O)NCC(=O)O)cc1 (stereo not drawn) (Tos-[ξS]-Gly-OH)
inactive: [12] 103 % of control | [13] 97 % of control | [14] 91 % of control

C=CS(=O)(=O)CCOc1ccc(Cl)cc1Cl
inactive: [15] 96 % of control | [16] 95 % of control

N=c1ccn(C(=O)C2=Cc3ccccc3OC2)cc1
inactive: dose: 5.0 mg/kg/injection, schedule: Q01DX009 (ip), vehicle: saline with Tween-80 101 % of control | dose: 10.0 mg/kg/injection, schedule: Q01DX009 (ip), vehicle: saline with Tween-80 90 % of control | dose: 10.0 mg/kg/injection, schedule: Q04DX003 (ip), vehicle: saline with Tween-80 100 % of control | dose: 20.0 mg/kg/injection, schedule: Q01DX009 (ip), vehicle: saline with Tween-80 96 % of control | dose: 20.0 mg/kg/injection, schedule: Q04DX003 (ip), vehicle: saline with Tween-80 98 % of control

CCCCNC(C)(C)C(=O)c1ccco1
inactive: dose: 50.0 mg/kg/injection, schedule: Q01DX009 (ip), vehicle: saline with Tween-80 100 % of control | [2] 97 % of control | [5] 111 % of control

COc1cc(NC2CCCCC2O)c2nc(-c3ccc(Cl)cc3)ccc2c1 (stereo not drawn)
inactive: [12] 98 % of control | [13] 90 % of control | [14] 86 % of control

CN1CCC(c2ccccc2)c2ccccc21 (stereo not drawn)
inactive: [3] 95 % of control | [6] 120 % of control | [8] 98 % of control

CCOC(=O)c1ccc(NC(=O)Nc2ccc(Cl)cc2[N+](=O)[O-])cc1
inactive: [15] 95 % of control and 92 % of control | [16] 92 % of control | [17] 88 % of control and 92 % of control

NNc1nnnc2ccccc12
inactive: dose: 20.0 mg/kg/injection, schedule: Q01DX001 (ip), vehicle: Klucel (hydroxypropylcellulose) (HPC) 108 % of control

O=[N+]([O-])c1ccc(Cl)c(OCCCBr)c1
inactive: [9] 108 % of control | [10] 95 % of control | [11] 94 % of control

CCOC(=O)C(C#N)(CC/C(C)=N/Nc1ccc([N+](=O)[O-])cc1[N+](=O)[O-])C(C)COC(C)=O (stereo not drawn)
inactive: [18] 94 % of control | [19] 91 % of control | [20] 102 % of control

CCCCCCCCCCCCOP(=O)(OCCCCCCCCCCCC)c1ccccc1
inactive: dose: 50.0 mg/kg/injection, schedule: Q01DX001 (ip), vehicle: saline 100 % of control | dose: 100.0 mg/kg/injection, schedule: Q01DX001 (ip), vehicle: saline 97 % of control | dose: 200.0 mg/kg/injection, schedule: Q01DX001 (ip), vehicle: saline 94 % of control | dose: 400.0 mg/kg/injection, schedule: Q01DX001 (ip), vehicle: saline 91 % of control

Nc1ccc2ncccc2c1[N+](=O)[O-]
inactive: [1] 87 % of control | [4] 93 % of control

ON(Cc1ccccc1)Cc1ccccc1
inactive: [15] 98 % of control | [9] 103 % of control | [16] 107 % of control | [10] 102 % of control | [17] 98 % of control | [11] 100 % of control

O=C(/C=C/c1ccc(F)cc1)c1ccc(Cl)cc1
inactive: [2] 101 % of control | [21] 96 % of control | [5] 92 % of control | [22] 90 % of control | [7] 103 % of control | [23] 94 % of control

O=C(CCCNC(=O)OCc1ccccc1)NCCCCCCCCCCNC(=O)CCCNC(=O)OCc1ccccc1
inactive: dose: 10.0 mg/kg/injection, schedule: Q01DX012 (ip), vehicle: saline 102 % of control | dose: 30.0 mg/kg/injection, schedule: Q01DX012 (ip), vehicle: saline 96 % of control | dose: 100.0 mg/kg/injection, schedule: Q01DX012 (ip), vehicle: saline 90 % of control | dose: 300.0 mg/kg/injection, schedule: Q01DX012 (ip), vehicle: saline 91 % of control

NC(CSS(=O)(=O)O)=NCCN1CCNC1=O
inactive: [24] 100 % of control | [25] 100 % of control | [26] 97 % of control

COC(=O)C(Cl)C(Cl)c1ccccc1 (stereo not drawn)
inactive: [21] 97 % of control | [22] 97 % of control | [23] 94 % of control

COc1ccc(NC(=O)Nc2onc(C)c2C)c(Cl)c1
inactive: [18] 95 % of control | [15] 94 % of control and 100 % of control | [24] 101 % of control | [9] 87 % of control | [19] 97 % of control | [16] 95 % of control and 88 % of control | [25] 95 % of control and 101 % of control | [10] 97 % of control | [20] 104 % of control | [17] 93 % of control and 95 % of control | [26] 96 % of control | [11] 88 % of control | dose: 4000.0 mg/kg/injection, schedule: Q04DX002 (ip), vehicle: Klucel (hydroxypropylcellulose) (HPC) 90 % of control

CCOc1ccc(/C=N/NS(=O)(=O)c2ccccc2)cc1OC
inactive: [2] 94 % of control | dose: 100.0 mg/kg/injection, schedule: Q04DX003 (ip), vehicle: saline sonified 107 % of control | [5] 98 % of control | dose: 200.0 mg/kg/injection, schedule: Q04DX003 (ip), vehicle: saline sonified 86 % of control | [7] 89 % of control | dose: 400.0 mg/kg/injection, schedule: Q04DX003 (ip), vehicle: saline sonified 98 % of control
